Here are results for 3 compounds from PubChem BioAssay AID1259407 (Chemical Carcinogenesis Research Information System (CCRIS), 2018).

Activity calls are given as the source filed them. How the calls were made is not given here.

The test system of the data set is CCRIS mutagenicity, Ames/micronucleus/aberration tests. As to the kind of experiment: CCRIS mutagenicity studies.

Regarding `O=C(CCCN1CCC(O)(c2ccc(Cl)cc2)CC1)c1ccc(F)cc1`, the mutagenic call (End Point: IN VITRO CHROMOSOMAL ABERRATIONS, Test System: HUMAN LYMPHOCYTES, Metabolic Activation: NONE) is “inactive; negative”; the mutagenic call (End Point: IN VIVO CHROMOSOMAL ABERRATIONS, Test System: LYMPHOCYTES, Species: HUMAN, Strain/Sex: MALE, Route: ORAL) is “inactive; negative”; the mutagenic call (Test System: AMES SALMONELLA TYPHIMURIUM, Strain/Indicator: TA98, Metabolic Activation: MOUSE, LIVER, S-9, AROCLOR 1254, Method: STANDARD PLATE) is “inactive; negative”; the mutagenic call (Test System: AMES SALMONELLA TYPHIMURIUM, Strain/Indicator: TA98, Metabolic Activation: MOUSE, LIVER, S-9, Method: STANDARD PLATE) is “inactive; negative”; the mutagenic call (Test System: AMES SALMONELLA TYPHIMURIUM, Strain/Indicator: TA98, Metabolic Activation: NONE, Method: PREINCUBATION) is “inactive; negative”; the mutagenic call (Test System: AMES SALMONELLA TYPHIMURIUM, Strain/Indicator: TA98, Metabolic Activation: NONE, Method: STANDARD PLATE) is “inactive; negative”. The mutagenic call (Test System: AMES SALMONELLA TYPHIMURIUM, Strain/Indicator: TA98, Metabolic Activation: RAT, LIVER, S-9, AROCLOR 1254, Method: PREINCUBATION) was “inactive; negative”; the mutagenic call (Test System: AMES SALMONELLA TYPHIMURIUM, Strain/Indicator: TA98, Metabolic Activation: RAT, LIVER, S-9, AROCLOR 1254, Method: STANDARD PLATE) was “inactive; negative”; the mutagenic call (Test System: AMES SALMONELLA TYPHIMURIUM, Strain/Indicator: TA100, Metabolic Activation: MOUSE, LIVER, S-9, AROCLOR 1254, Method: STANDARD PLATE) was “inactive; negative”; the mutagenic call (Test System: AMES SALMONELLA TYPHIMURIUM, Strain/Indicator: TA100, Metabolic Activation: MOUSE, LIVER, S-9, Method: STANDARD PLATE) was “inactive; negative”; the mutagenic call (Test System: AMES SALMONELLA TYPHIMURIUM, Strain/Indicator: TA100, Metabolic Activation: NONE, Method: PREINCUBATION) is “inactive; negative”; the mutagenic call (Test System: AMES SALMONELLA TYPHIMURIUM, Strain/Indicator: TA100, Metabolic Activation: NONE, Method: STANDARD PLATE) is “inactive; negative”. For the same compound, the mutagenic call was “inactive; negative” (Test System: AMES SALMONELLA TYPHIMURIUM, Strain/Indicator: TA100, Metabolic Activation: RAT, LIVER, S-9, AROCLOR 1254, Method: PREINCUBATION); “inactive; negative” (Test System: AMES SALMONELLA TYPHIMURIUM, Strain/Indicator: TA100, Metabolic Activation: RAT, LIVER, S-9, AROCLOR 1254, Method: STANDARD PLATE); “inactive; negative” (Test System: AMES SALMONELLA TYPHIMURIUM, Strain/Indicator: TA1530, Metabolic Activation: MOUSE, LIVER, S-9, AROCLOR 1254, Method: STANDARD PLATE); “inactive; negative” (Test System: AMES SALMONELLA TYPHIMURIUM, Strain/Indicator: TA1530, Metabolic Activation: MOUSE, LIVER, S-9, Method: STANDARD PLATE); “inactive; negative” (Test System: AMES SALMONELLA TYPHIMURIUM, Strain/Indicator: TA1530, Metabolic Activation: NONE, Method: STANDARD PLATE); “inactive; negative” (Test System: AMES SALMONELLA TYPHIMURIUM, Strain/Indicator: TA1530, Metabolic Activation: RAT, LIVER, S-9, AROCLOR 1254, Method: STANDARD PLATE). The mutagenic call was “inactive; negative” (Test System: AMES SALMONELLA TYPHIMURIUM, Strain/Indicator: TA1535, Metabolic Activation: MOUSE, LIVER, S-9, AROCLOR 1254, Method: STANDARD PLATE); “inactive; negative” (Test System: AMES SALMONELLA TYPHIMURIUM, Strain/Indicator: TA1535, Metabolic Activation: MOUSE, LIVER, S-9, Method: STANDARD PLATE); “inactive; negative” (Test System: AMES SALMONELLA TYPHIMURIUM, Strain/Indicator: TA1535, Metabolic Activation: NONE, Method: STANDARD PLATE); “inactive; negative” (Test System: AMES SALMONELLA TYPHIMURIUM, Strain/Indicator: TA1535, Metabolic Activation: RAT, LIVER, S-9, AROCLOR 1254, Method: STANDARD PLATE); “inactive; negative” (Test System: AMES SALMONELLA TYPHIMURIUM, Strain/Indicator: TA1537, Metabolic Activation: NONE, Method: STANDARD PLATE); “inactive; negative” (Test System: AMES SALMONELLA TYPHIMURIUM, Strain/Indicator: TA1537, Metabolic Activation: RAT, LIVER, S-9, AROCLOR 1254, Method: STANDARD PLATE). For the same compound, the mutagenic call is, setting by setting: (Test System: AMES SALMONELLA TYPHIMURIUM, Strain/Indicator: TA1538, Metabolic Activation: MOUSE, LIVER, S-9, AROCLOR 1254, Method: STANDARD PLATE) “inactive; negative”; (Test System: AMES SALMONELLA TYPHIMURIUM, Strain/Indicator: TA1538, Metabolic Activation: MOUSE, LIVER, S-9, Method: STANDARD PLATE) “inactive; negative”; (Test System: AMES SALMONELLA TYPHIMURIUM, Strain/Indicator: TA1538, Metabolic Activation: NONE, Method: STANDARD PLATE) “inactive; negative”; (Test System: AMES SALMONELLA TYPHIMURIUM, Strain/Indicator: TA1538, Metabolic Activation: RAT, LIVER, S-9, AROCLOR 1254, Method: STANDARD PLATE) “inactive; negative”.

As for `OCCOc1ccccc1`, the mutagenic call reads like this: (Test System: Ames Salmonella typhimurium, Strain/Indicator: TA98, Metabolic Activation: None, Method: Preincubation) “inactive; negative”; (Test System: Ames Salmonella typhimurium, Strain/Indicator: TA98, Metabolic Activation: Rat, Liver, S-9, Phenobarbital and 5,6-benzoflavone, Method: Preincubation) “inactive; negative”; (Test System: Ames Salmonella typhimurium, Strain/Indicator: TA100, Metabolic Activation: None, Method: Preincubation) “inactive; negative”; (Test System: Ames Salmonella typhimurium, Strain/Indicator: TA100, Metabolic Activation: Rat, Liver, S-9, Phenobarbital and 5,6-benzoflavone, Method: Preincubation) “inactive; negative”; (Test System: Ames Salmonella typhimurium, Strain/Indicator: TA1535, Metabolic Activation: None, Method: Preincubation) “inactive; negative”; (Test System: Ames Salmonella typhimurium, Strain/Indicator: TA1535, Metabolic Activation: Rat, Liver, S-9, Phenobarbital and 5,6-benzoflavone, Method: Preincubation) “inactive; negative”. The mutagenic call by setting is: (Test System: Ames Salmonella typhimurium, Strain/Indicator: TA1537, Metabolic Activation: None, Method: Preincubation) “inactive; negative”; (Test System: Ames Salmonella typhimurium, Strain/Indicator: TA1537, Metabolic Activation: Rat, Liver, S-9, Phenobarbital and 5,6-benzoflavone, Method: Preincubation) “inactive; negative”; (Test System: E. coli, Strain/Indicator: WP2uvrA/pKM101, Metabolic Activation: None, Method: Preincubation) “inactive; negative”; (Test System: E. coli, Strain/Indicator: WP2uvrA/pKM101, Metabolic Activation: Rat, Liver, S-9, Phenobarbital and 5,6-benzoflavone, Method: Preincubation) “inactive; negative”.

Take `CC(C)(C)N(CC(O)COc1cccc2c1CC(O)C(O)C2)N=O` (stereo not given): the mutagenic call is, setting by setting: (Test System: UDS HUMAN HEPATOCYTES, Strain/Indicator: THY INCORP, Metabolic Activation: NONE, Method: AUTORADIOGRAPHY) “active; positive”; (Test System: UDS RAT HEPATOCYTES, Strain/Indicator: THY INCORP, Metabolic Activation: NONE, Method: AUTORADIOGRAPHY) “active; positive”.
